Assay results as given in patent US20100152114A1, “Antioxidant activity of GH-RH Antagonists” (priority 2008, published 2010).
Ends that are not written are not given here.

Legend:
Format in all cases: cell-based
[1] = test system: wild-type p53 tumor suppressor protein; test: Western Blot of wild-type p53 expression in LNCaP cells; conditions: 72 hour exposure, control R.I: 0.436
Method: (§1) Prostate cancer cells LNCaP and breast cancer cells MCF-7 were obtained from American Type Culture Collection (Manassas, Va.) and were cultured as described previously. The antibodies that detect P53, PCNA, GPX1, SOD1, NQ01, Thioredoxin 1, COX2 and COX IV were purchased from Cell Signalling (Danvers, Mass.). The antibodies that detect β actin, NFκB50, pNFκB50, caspase 3 and its cleaved form were purchased from Santa Cruz Biotechnology (Santa Cruz, Calif.). The antibodies against GHRH-R (batch number: SV95) and SV1 (batch number: JH 2317/5) were raised in our laboratory. The signals for the immunoreactive proteins were visualized in a Chemi Doc XRS system (Biorad, Hercules, Calif.). The western Blot assay as well the quantification analysis of the blots was performed as described previously.
LNCaP prostate cancer cell line cultured in vitro was exposed to two concentrations of JMR-132 and GHRH(1-29)NH2 and the expression level of the p53 tumor suppressor protein (M.W: 53 KDa) was measured by Western Blot. The p53 protein expression was higher in the cells exposed to 0.1 μM and 1 μM GHRH antagonist JMR-132 (R.I: 0.583 and 0.658 respectively) and lower in the cells incubated with 0.1 μM and 1 μM GHRH (1-29)NH2 (R.I: 0.376 and 0.264 respectively) as compared to control (R.I: 0.436)

N-nitrotyrosine = test: Protein oxidation: nitrotyrosine immunoblot in LNCaP cells; conditions: 1 μM, 72 hour, control R.I: 2.903
Method: (§2) The detection of the carbonyl groups, the nitrotyrosine and the lipid peroxidation was performed with the Oxiselect Protein carbonyl Immunoblot, the Oxiselect Nitrotyrosine Immunoblot Kit and the Oxiselect Malondialdehyde Immunoblot Kit respectively (Cell Biolabs, San Diego, Calif.) according the manufacturer s instructions. The detection of the lipid peroxidation using a primary rabbit anti-MDA antibody (Cell Biolabs, San Diego, Calif.) according the manufacturer' instructions. The β-actin signal was used as control.
(§3) LNCaP prostate cancer cell line cultured in vitro were exposed to 1 μM JMR-132 or 1 μM GHRH(1-29)NH2. The levels of the oxidation of the proteins were determined by the detection of the N-nitrotyrosine and the protein carbonyl groups. Both were elevated in the cells exposed to GHRH (1-29)NH2 (R.I: 3.282, 7.415) and decreased in the cells incubated with GHRH antagonist JMR-132 (R.I: 1.251, 4.275), as compared to control (R.I: 2.903, 5.846). The levels of the lipid peroxidation, determined by the detection of the malondialdehyde (MDA), were increased in cells exposed to GHRH (1-29)NH2 (R.I:4.89) and decreased in cells incubated with GHRH antagonist JMR-132 (R.I: 2.973) as compared to control (R.I: 4.433). […]

[2] = test system: LNCaP prostate cancer cell line; test: Cell proliferation rate assay in LNCaP cells; conditions: vs LNCaP cells cultured without peptide, 72 hours incubation (FIG. 1)
From the text: (A) is a graphic presentation of the changes in the proliferation rate of the LNCaP prostate cancer cell line after exposure to GHRH antagonist JMR-132 and GHRH (1-29)NH2. Percentage increase or decrease are expressed vs LNCaP cells cultured in the absence of JMR-132 or GHRH (1-29)NH2*(P<0.05), **(P<0.005).
The rate of the cell proliferation […] microscope using the trypan blue assay or a Z series Coulter Counter (Beckman Coulter, Fullerton, Calif., USA). The data are expressed as the mean±SEM. Statistical evaluation of the results was performed by the Student's t test (two-tailed). P values shown are against the control group.
(§4) LNCaP prostate cancer cells were exposed to two concentrations of GHRH(1-29)NH2 and JMR-132. […] However, GHRH (1-29)NH2 at 0.1 μM concentration stimulated the proliferation rate of LNCaP cells by 13%. GHRH antagonist JMR-132 at the doses of 0.1 μM and 1 μM decreased the proliferation of LNCaP prostate cancer cell line by 32% and 37% respectively. In addition, the expression levels of the PCNA (M.W: 36 KDa) were evaluated by Western Blot. The PCNA protein expression was increased in the cells exposed to 0.1 μM and 1 μM of GHRH (1-29)NH2 (R.I: 0.77 and 0.925 respectively) and decreased in the cells that incubated with 0.1 μM of GHRH antagonist JMR-132. (R.I: 0.495) as compared to control (R.I: 0.656).

COX 2 = test: Western Blot of COX 2 in LNCaP cells; conditions: 1 μM, 72 hour incubation, control R.I: 0.822
Method: (§5) FIG. 4: is a Western Blot analysis of expression of the enzyme COX2 and COXIV enzymes in LNCaP prostate cancer cell line after 72 hour incubation with GHRH antagonist JMR-132 and GHRH(1-29)NH2. n=2
as §1
(§6) After LNCaP prostate cancer cells cultured in vitro were exposed to 1 μM GHRH antagonist JMR-132 and GHRH(1-29)NH2, the expression levels of the enzymes COX 2 and COX IV were measured by Western Blot. […]

malondialdehyde (MDA) = test: Lipid peroxidation: malondialdehyde immunoblot in LNCaP cells; conditions: 1 μM, 72 hour, control R.I: 4.433
Method: as §2, §3

protein carbonyl groups = test: Protein oxidation: protein carbonyl immunoblot in LNCaP cells; conditions: 1 μM, 72 hour, control R.I: 5.846
Method: as §2, §3

GPX1 = test: Western Blot of GPX1 in LNCaP cells; conditions: 1 μM, 72 hour exposure, control R.I: 0.107
Method: (§7) FIG. 7: is a Western Blot analysis of expression of the antioxidant enzymes TRX1, NQ01, GPX1 and SOD1 in LNCaP prostate cancer cell line after 72 hour exposure to GHRH antagonist JMR-132 and GHRH(1-29)NH2 n=2.
as §1
(§8) LNCaP prostate cancer cell line cultured in vitro was exposed to 1 μM JMR-132 and GHRH(1-29)NH2. The expression levels of the detoxifying enzymes were measured by Western Blot. The GPX1 (M.W: 22 Kda) protein expression was higher in the cells exposed to GHRH (1-29)NH2 (R.I: 0.126) and lower in the cells incubated with GHRH antagonist JMR-132 (R.I: 0.035), as compared to control (R.I:0.107). […]

thioredoxin 1 = test: Western Blot of thioredoxin 1 in LNCaP cells; conditions: 1 μM, 72 hour exposure, control R.I: 0.210
Method: as §7, §1, §8

NQ01 = test: Western Blot of NQ01 in LNCaP cells; conditions: 1 μM, 72 hour exposure, control R.I: 0.175
Method: as §7, §1, §8

NFκB p50 = test: Western Blot of NFκB p50 in LNCaP cells; conditions: 1 μM, 72 hours
Method: (B): is a Western Blot analysis of expression of the NFκB p50. n=2
as §1
(§9) LNCaP cells cultured in vitro were exposed to 1 μM GHRH antagonist JMR-132 and 1 μM GHRH(1-29)NH2. The expression levels of NFκB p50, the phosphorylated NFκB p50, caspase 3 (M.W: 35 KDa) and the cleaved caspase 3 were detected by Western Blot. […]

phosphorylated NFκB p50 = test: Western Blot of phosphorylated NFκB p50 in LNCaP cells; conditions: 1 μM, 72 hours, control R.I: 0.521
Method: (§10) (A): is a Western Blot analysis of expression of the phosphorylated NFκB p50, caspase 3 protein and its cleaved form in LNCaP prostate cancer cell line after exposure to GHRH antagonist JMR-132 and GHRH (1-29)NH2. n=2
as §1, §9

COX IV = test: Western Blot of COX IV in LNCaP cells; conditions: 1 μM, 72 hour incubation, control R.I: 0.139
Method: as §5, §1, §6

caspase 3 = test: Western Blot of caspase 3 in LNCaP cells; conditions: 1 μM, 72 hours, control R.I: 0.108
Method: as §10, §1, §9

cleaved caspase 3 = test: Western Blot of cleaved caspase 3 in LNCaP cells; conditions: 1 μM, 72 hours, control R.I: 0.320
Method: as §10, §1, §9

[3] = test system: Proliferating Cell Nuclear Antigen (PCNA); test: Western Blot of PCNA expression in LNCaP cells; conditions: control R.I: 0.656
Method: (B) is a Western Blot analysis of expression of the Proliferating Cell Nuclear Antigen (PCNA) in LNCaP prostate cancer cell line after exposure to GHRH antagonist JMR-132, and GHRH(1-29)NH2 n=2.
as §1, §4

reactive oxygen species = test: Intracellular generation of reactive oxygen species (aminophenyl fluorescein) in LNCaP cells; conditions: 10^−6 M, 30 minutes at 37° C.
Method: Percentage increase or decrease are expressed vs LNCaP cells cultured in the absence of JMR-132 or GHRH (1-29)NH2. *** (P<0.005).
The detection of the Reactive Oxygen Species was carried out using aminophenyl fluorescein, an indicator for the highly reactive oxygen species (Invitrogen, Carlsbad, Calif., USA). This fluorescein derivative is non fluorescent until it reacts with the hydroxyl radical, peroxynitrite anion or hypochlorite anion. […] LNCaP prostate cancer cells were seeded in 200 μl of RPMI 1640 containing 10 μM aminophenyl fluorescein at a density of 10^3 cells/well onto a 48-well plate and were incubated for 30 minutes at 37° C. with GHRH (1-29)NH2 or JMR-132 at a concentration of 10^−6 M. The fluorescence was measured using a fluorescence plate reader (VICTOR^3 Multilabel Plate Reader, Perkin Elmer, Shelton, Conn., USA) with an excitation wavelength of 490 nm and an emission wavelength of 515 nm.
LNCaP prostate cancer cell line cultured in vitro were exposed to 1 μM JMR-132 or 1 μM GHRH(1-29)NH2. The levels of the oxidation of the proteins were determined by the detection of the N-nitrotyrosine and the protein carbonyl groups. Both were elevated in the cells exposed to GHRH (1-29)NH2 (R.I: 3.282, 7.415) and decreased in the cells incubated with GHRH antagonist JMR-132 (R.I: 1.251, 4.275), as compared to control (R.I: 2.903, 5.846). […]

SOD1 = test: Western Blot of SOD1 in LNCaP cells; conditions: 1 μM, 72 hour exposure, only detectable with GHRH (1-29)NH2
Method: as §7, §1, §8

Substance | p53 protein expression (R.I) ([1]; 0.1 μM) | p53 protein expression (R.I) ([1]; 1 μM) | N-nitrotyrosine level, protein oxidation (R.I) (N-nitrotyrosine) | COX 2 protein expression (R.I) (COX 2) | lipid peroxidation, malondialdehyde (MDA) (R.I) (malondialdehyde (MDA)) | protein carbonyl groups level, protein oxidation (R.I) (protein carbonyl groups) | GPX1 protein expression (R.I) (GPX1) | levels of the thioredoxin 1 protein (R.I) (thioredoxin 1) | NQ01 protein expression (R.I) (NQ01) | expression of the NFκB (R.I), not influenced (NFκB p50) | expression of the phosphorylated NFκB (R.I) (phosphorylated NFκB p50) | COX IV protein expression (R.I) (COX IV) | expression of caspase 3 protein (R.I) (caspase 3) | expression of cleaved caspase 3 (R.I) (cleaved caspase 3) | PCNA protein expression (R.I) ([3]; 0.1 μM) | also measured
GHRH(1-29)NH2 (YADAIFTNSYRKVLGQLSARKLLQDIMSR-NH2; UniProt P01286 32-60, looked up, fragment) [Growth Hormone-Releasing Hormone (1-29) amide, agonist peptide used for comparison with the antagonist] | 0.376 | 0.264 | 3.282 | 0.928 | 4.89 | 7.415 | 0.126 | 0.277 | 0.196 | 0.766 | 0.623 | 0.237 | 0.083 | 0.182 | 0.77 | increase (stimulation) of the proliferation rate of LNCaP cells ([2]; 0.1 μM): 13%; increase of the proliferation rate of LNCaP cells ([2]; 1 μM): 7%; PCNA protein expression (R.I) ([3]; 1 μM): 0.925; generation of the reactive oxygen species, higher than control (reactive oxygen species): 36%; SOD1 protein expression (R.I) (SOD1): 0.111
[PhAc^0-Tyr^1, D-Arg^2, Cpa^6, Ala^8, Har^9, Tyr(Me)^10, His^11, Abu^15, His^20, Nle^27, D-Arg^28, Har^29]hGH-RH(1-29)NH2 [JMR-132] | 0.583 | 0.658 | 1.251 | 0.532 | 2.973 | 4.275 | 0.035 | 0.196 | 0.025 | 0.786 | 0.451 | 0.077 | 0.120 | 0.391 | 0.495 | decrease of the proliferation of LNCaP prostate cancer cell line ([2]; 0.1 μM): 32%; decrease of the proliferation of LNCaP prostate cancer cell line ([2]; 1 μM): 37%; generation of the reactive oxygen species, lower than control (reactive oxygen species): 23%
